Test results taken from patent US20100239556A1, “PROMOTING ECM PRODUCTION BY FIBROBLAST CELLS AND/OR PROMOTING MIGRATION OF FIBROBLAST CELLS IN A BIOLOGICAL SYSTEM” (TGR BioScience Pty Ltd., priority 2006, published 2010).

Key:
HFF cells [1] = assay: ECM production within INTEGRA scaffold (collagen I immunohistochemistry); assay type: cell-based, human; settings: SBP 25 μg/ml pre-, pre+post- or post-treatment
Excerpt: INTEGRA® was cut into lcm x lcm pieces using a sterile scalpel, the pieces transferred to a petri dish using sterile forceps and washed four times each with PBS followed by serum-free DMEM, to remove the alcohol storage medium and to equilibrate the porous scaffold for exposure to cells. After the last wash, the INTEGRA® pieces were transferred to the wells of a 12 well tissue culture plate (collagen layer facing up) immersed in media containing proteins having peroxidase activity. This “pre-treatment” of the INTEGRA® with proteins having peroxidase activity was performed for up to 16 hours at 37° C. in a CO2 incubator. After the “pre-incubation” period, the media was replaced with fresh DMEM supplemented with 10% FBS (ie normal growth media as the control) containing 5×10^5 human fibroblast cells plus or minus proteins having peroxidase activity. After allowing 24 hours for the fibroblast cells to attach to the collagen matrix of the INTEGRA® scaffold, the INTEGRA® pieces were transferred to fresh 12 well plates to ensure any cells not attached to the matrix surface were removed. Fresh media containing proteins with peroxidase activity were added to the wells and the INTEGRA® pieces incubated for up to 14 days (“post-treatment” period) with the media changed every 7 days as necessary. At the end of the experiment the INTEGRA® pieces were harvested and fixed in 10% buffered formaldehyde before they were processed, embedded in paraffin wax, cut in cross-section and placed onto microscope slides for histological and immunohistochemical analysis.
To confirm proteins having peroxidase activity promote the generation of a three-dimensional human tissue by stimulating the production of collagen and other ECM components to fill the interstices of a three-dimensional framework or scaffold, INTEGRA® pieces collected from the experiments described in Example 3 were analysed for the production of Collagen I (as a representative ECM protein) using immunohistochemistry. […]

[2] = Elution of peroxidase activity from INTEGRA (Sigmafast OPD detection)
Procedure: These experiments were performed by pre-incubating 1 cm×1 cm pieces of INTEGRA® with SBP (25 μg/ml) as described in Example 3 for either 30 minutes or 16 hours, control pieces were pre-incubated in DMEM only. After this time, the pieces of INTEGRA® were washed in fresh media to remove excess SBP solution, and placed into the wells of a 12-well culture plate pre-seeded with HFF cells (2×10^5cells/well) that were grown to confluency over three days. The media from these wells was collected after 24 and 48 hours with peroxidase activity measured (to determine the rate of elution of the proteins with peroxidase activity from the Integra) and the collagen content measured by ELISA (to ensure the eluted proteins with peroxidase activity retained the capacity to stimulate collagen production by the HFF cells). The peroxidase activity was assessed using the Sigmafast™ O-phenylenediamine dihydrochloride (OPD) detection method as per the manufacturers instructions. Briefly, 5 μl of sample was combined with 100 μl of reagent and relative peroxidase activity determined after 5-10 minutes incubation by measuring absorbance at 450 nm using a Wallac Victor Multilabel HTS counter.

HFF cells [3] = assay: Collagen I production in the presence of dexamethasone; assay type: cell-based, human
Procedure: Primary human foreskin fibroblast cells (HFF) were seeded into 96 well plates at a density of 1.2×10^4 cells/well and cultured overnight in 10% fetal bovine serum/Dulbecco's minimum essential media (10% FBS/DMEM) at 37° C. and 5% CO2. The cells were then starved overnight in serum free DMEM and triplicate wells treated for six hours with a range of doses of proteins with peroxidase activity; horse radish peroxidase (HRP; 0.2-50 ug/ml), Arthromyces ramosus peroxidase (ARP; 0.2-50 ug/ml), microperoxidase (MP; 8-500 ug/ml), soy bean peroxidase (SBP; 0.2-100 ug/ml) and lactoperoxidase (LP; 10-310 ug/ml) (all obtained from Sigma-Aldrich). At the end of the six hour treatment period, the media was aspirated and replaced with fresh serum free DMEM and the cells cultured for a further 72 hours. After 72 hours the culture media was collected for assessment of secreted, soluble collagen types I, III and VI as well as fibronectin protein and the cells assessed for viability/growth using an alamar blue fluorescent dye assay. This assay measures the reduction of oxidized, blue nonfluorescent Alamar Blue reagent to a pink fluorescent dye in the cell medium, such that the higher the amount of reduction, the greater the cell number and/or activity (O'Brien Eur J Biochem 267 2000). Briefly, cells were bathed in a 10% Alamar Blue/phosphate-buffered saline (PBS) solution for 30-60 minutes and fluorescence measured at wavelengths of 485 nm excitation and 595 nm emission using a Wallac Victor Multilabel HTS counter. Relative fluorescent units (RFU) for each sample were normalized to control wells (DMEM only treated cells) and data expressed as mean±standard error of the mean (sem) for triplicate wells. Experiments were repeated at least three times with the combined data from all experiments shown.
The amount of soluble collagen types I, III, and VI in HFF conditioned media was measured by a direct coat ELISA method using standard curves constructed from purified human collagen I, III or VI (extracted from human placenta; col I, BD Biosciences; col III and VI, Rocklands Immunochemicals) and fibronectin (extracted from human plasma, Chemicon). Samples and standards (20 μl/well) were added to a 384 well spectraplate (Packard BioScience) and left at room temperature (RT) overnight. […] After a final wash (6×PBS-T), enhancement solution was added for at least 10 minutes and fluorescence measured at excitation 340 nm and emission 615 nm using a Wallac Victor Multilabel HTS counter. The respective ECM concentration of each sample was determined from the standard curve (μg/ml) and normalized to control wells (DMEM only treated cells) with the mean±sem for triplicate wells calculated. […]

Substance	production and deposition of cell-associated ECM in the scaffold (HFF cells [1])	peroxidase activity eluted, pre-incubated 16 hours compared to 30 minutes [2]	peroxidase activity in the medium collected after 24 and 48 hours ([2]; 24 versus 48 hours elution)	increase in collagen I levels (HFF cells [3]; 3.1-25 μg/ml, no dexamethasone)	collagen accumulation in cells treated with both dexamethasone and ARP (HFF cells [3]; dexamethasone 20 μM)
soy bean peroxidase [SBP]	as effective at promoting the production and depositon of cell-associated ECM throughout the full thickness of the scaffold	approximately one third more	identical		
Arthromyces ramosus peroxidase [ARP]				4.5-7 fold	significant levels of collagen accumulation were still evident
